The values that follow come from ChEMBL document CHEMBL4840382, “Novel Substituted Heteroaryl Compounds for Treating Huntington's Disease” (ACS Med Chem Lett, 2021).

The target of the assay is Huntingtin (Homo sapiens, UniProt P42858). As to the kind of experiment: Inhibition of endogenous Huntingtin protein (unknown origin) incubated for overnight in presence of MW1/MAB2166 monoclonal antibody by ELISA-based MSD electrochemiluminescence assay.

Broadly, the IC50 is the concentration needed to halve the response being measured.

Chain of Huntingtin (P42858 whole entry): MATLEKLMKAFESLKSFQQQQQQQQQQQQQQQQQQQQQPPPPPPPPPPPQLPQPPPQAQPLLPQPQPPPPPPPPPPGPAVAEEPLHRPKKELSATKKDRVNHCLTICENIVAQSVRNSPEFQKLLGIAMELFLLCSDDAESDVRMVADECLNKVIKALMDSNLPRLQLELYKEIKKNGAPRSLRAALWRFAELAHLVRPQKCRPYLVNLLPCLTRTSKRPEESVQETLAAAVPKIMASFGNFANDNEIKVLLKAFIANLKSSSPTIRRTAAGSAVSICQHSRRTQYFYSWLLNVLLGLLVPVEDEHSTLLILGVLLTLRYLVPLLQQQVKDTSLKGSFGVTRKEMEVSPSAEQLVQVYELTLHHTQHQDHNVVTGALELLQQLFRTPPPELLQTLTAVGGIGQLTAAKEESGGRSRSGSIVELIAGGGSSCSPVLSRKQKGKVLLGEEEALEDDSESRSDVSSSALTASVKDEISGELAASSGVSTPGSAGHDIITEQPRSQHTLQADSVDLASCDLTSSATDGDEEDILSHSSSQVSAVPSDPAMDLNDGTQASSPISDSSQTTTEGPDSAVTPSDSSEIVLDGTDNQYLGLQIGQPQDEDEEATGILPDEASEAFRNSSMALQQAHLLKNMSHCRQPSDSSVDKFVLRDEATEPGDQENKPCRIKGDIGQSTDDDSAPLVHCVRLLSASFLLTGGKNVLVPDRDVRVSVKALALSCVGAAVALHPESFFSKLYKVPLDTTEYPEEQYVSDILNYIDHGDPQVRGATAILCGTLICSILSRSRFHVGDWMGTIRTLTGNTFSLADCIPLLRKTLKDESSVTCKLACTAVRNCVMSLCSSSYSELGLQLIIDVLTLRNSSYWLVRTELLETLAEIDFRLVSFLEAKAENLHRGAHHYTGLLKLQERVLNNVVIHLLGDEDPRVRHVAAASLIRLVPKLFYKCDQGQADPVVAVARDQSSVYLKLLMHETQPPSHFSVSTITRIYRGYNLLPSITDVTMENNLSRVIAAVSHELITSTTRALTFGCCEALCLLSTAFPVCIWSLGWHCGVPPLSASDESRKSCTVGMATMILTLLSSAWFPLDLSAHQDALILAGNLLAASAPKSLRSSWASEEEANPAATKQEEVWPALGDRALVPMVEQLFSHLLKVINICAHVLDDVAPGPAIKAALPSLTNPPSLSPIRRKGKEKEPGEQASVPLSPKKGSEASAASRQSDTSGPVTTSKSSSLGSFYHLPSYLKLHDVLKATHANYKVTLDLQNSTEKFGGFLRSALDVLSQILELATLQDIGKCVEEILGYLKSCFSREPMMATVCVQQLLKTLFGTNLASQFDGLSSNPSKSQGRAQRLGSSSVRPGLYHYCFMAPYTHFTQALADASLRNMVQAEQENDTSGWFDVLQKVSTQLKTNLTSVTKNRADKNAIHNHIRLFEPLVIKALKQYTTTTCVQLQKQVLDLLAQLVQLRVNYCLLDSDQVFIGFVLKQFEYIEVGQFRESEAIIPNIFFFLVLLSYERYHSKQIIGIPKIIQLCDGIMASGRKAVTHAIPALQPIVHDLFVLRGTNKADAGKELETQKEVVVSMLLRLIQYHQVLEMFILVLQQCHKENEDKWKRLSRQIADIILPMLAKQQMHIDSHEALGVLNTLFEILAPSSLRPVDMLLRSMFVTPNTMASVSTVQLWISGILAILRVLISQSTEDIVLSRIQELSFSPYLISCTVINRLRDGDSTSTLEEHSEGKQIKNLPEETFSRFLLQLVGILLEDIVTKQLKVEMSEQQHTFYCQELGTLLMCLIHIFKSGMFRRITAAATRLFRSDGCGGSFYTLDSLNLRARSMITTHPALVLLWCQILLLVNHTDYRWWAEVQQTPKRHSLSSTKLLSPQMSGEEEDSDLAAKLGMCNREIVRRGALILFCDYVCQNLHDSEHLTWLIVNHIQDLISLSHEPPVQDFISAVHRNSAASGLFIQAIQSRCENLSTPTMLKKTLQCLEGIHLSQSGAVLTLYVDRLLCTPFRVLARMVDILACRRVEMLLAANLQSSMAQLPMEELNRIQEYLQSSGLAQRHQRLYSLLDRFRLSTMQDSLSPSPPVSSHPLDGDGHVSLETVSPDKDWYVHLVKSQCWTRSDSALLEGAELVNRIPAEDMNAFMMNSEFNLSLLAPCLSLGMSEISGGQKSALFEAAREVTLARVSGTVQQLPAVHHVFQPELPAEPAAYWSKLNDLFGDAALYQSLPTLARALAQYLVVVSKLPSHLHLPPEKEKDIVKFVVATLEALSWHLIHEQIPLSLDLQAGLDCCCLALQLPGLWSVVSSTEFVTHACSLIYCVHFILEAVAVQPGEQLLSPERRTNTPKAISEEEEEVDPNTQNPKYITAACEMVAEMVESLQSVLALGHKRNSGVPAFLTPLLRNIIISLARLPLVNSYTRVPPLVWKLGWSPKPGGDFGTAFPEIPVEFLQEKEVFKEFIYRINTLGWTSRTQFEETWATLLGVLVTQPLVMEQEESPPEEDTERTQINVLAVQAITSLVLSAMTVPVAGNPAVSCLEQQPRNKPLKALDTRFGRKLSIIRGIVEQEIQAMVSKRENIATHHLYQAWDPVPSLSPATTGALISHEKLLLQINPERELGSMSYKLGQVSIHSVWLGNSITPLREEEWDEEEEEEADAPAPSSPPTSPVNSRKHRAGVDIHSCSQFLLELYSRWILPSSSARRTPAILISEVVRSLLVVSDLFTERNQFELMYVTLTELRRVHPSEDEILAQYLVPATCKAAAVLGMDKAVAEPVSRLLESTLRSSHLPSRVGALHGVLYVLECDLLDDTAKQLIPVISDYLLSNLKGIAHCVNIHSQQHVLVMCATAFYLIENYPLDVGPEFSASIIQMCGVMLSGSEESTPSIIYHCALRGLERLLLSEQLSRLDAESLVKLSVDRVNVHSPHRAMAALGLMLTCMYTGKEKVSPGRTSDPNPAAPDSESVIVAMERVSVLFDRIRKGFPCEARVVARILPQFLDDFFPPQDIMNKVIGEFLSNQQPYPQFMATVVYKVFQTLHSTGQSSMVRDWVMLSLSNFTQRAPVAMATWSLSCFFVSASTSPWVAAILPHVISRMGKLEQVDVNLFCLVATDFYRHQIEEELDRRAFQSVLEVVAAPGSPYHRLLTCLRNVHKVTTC

As for `Cn1cc2cc(-c3ccc(-c4cnc(N5CCNC(CO)C5)nn4)c(O)c3)cc(F)c2n1` (stereo unspecified), the IC50 turned out to be 1.6 nM.
As for `Cc1cn2cc(-c3ccc(-c4cnc(N5CCN[C@@H](C(C)C)C5)nn4)c(O)c3)ncc2n1`, the IC50 came out at 2.3 nM.
For `CCC1CN(c2ncc(-c3ccc(-c4cc(F)c5nc(C)cn5c4)cc3O)nn2)CCN1` (stereo unspecified), the IC50 amounted to 2.2 nM.
For `Cn1nc2cc(-c3ccc(-c4cnc(N5CCN[C@@H](C6CC6)C5)nn4)c(O)c3)cnc2n1` the value was 1.7 nM; for `Oc1cc(-c2c[nH]nc2F)ccc1-c1cnc(N2CCN[C@@H](C3CC3)C2)nn1`, 2.1 nM.
On to `CC1CN(c2ncc(-c3ccc(-c4cc(F)c5nn(C)cc5c4)cc3O)nn2)CCN1` (stereo unspecified), for which the IC50 was determined as 2.1 nM.
